*1 amine or outer side, *2 acyl side, *3 side chain or, on linkers, in order; H or OH if unused. Where a SMILES comes first, the peptide text is derived from it. [ ]: non-standard residue; d: D form. The star is where a group is joined. ξ: configuration not given here. Abu(1-amidino-4-piperidyl) = N=C(N)N1CCC(CC[C@H](N)C(=O)O)CC1; Gly(1-amidinopiperidin-4-yl) = N=C(N)N1CCC([C@H](N)C(=O)O)CC1; DTPA = O=C(O)CN(CCN(CC(=O)O)CC(=O)O)CCN(CC(=O)O)CC(=O)*; Phe(4-guanidino) = N=C(N)Nc1ccc(C[C@H](N)C(=O)O)cc1; ξGly(4-Pip(1-amidino)) = N=C(N)N1CCC(C(N)C(=O)O)CC1; X1 = CC(C)C[C@@H](CN[C@@H](CC(C)C)C(N)=O)N*; X3 = CC[C@H](C)[C@@H](COC(=O)[*:2])N[*:1]; Tle = CC(C)(C)[C@H](N)C(=O)O; Aba(Apy) = not defined here; NHOH = ON*
What was measured:
[1] = molecular target: neurotensin receptors (Homo sapiens, UniProt P30989); assay: Competitive binding assay on frozen tissue sections of receptor-positive human tumors vs radioiodinated native neurotensin
Text: Frozen tissue sections from receptor-positive human tumors were used in a competitive binding assay.

[2] = In vitro serum stability assay (HPLC) of In-111 labeled peptide; format: in vitro ADME, human; details: for remaining at 4 h: t = 4 h
Experimental: (§1) All reagents were purchased from Sigma unless otherwise noted. The peptide and ^111InCl3 in 0.05 N HCl were incubated in a sodium acetate/ascorbic acid buffer for 30 minutes at room temperature. The reaction was diluted with 5% ethanol/95% PBS before using in subsequent in vitro assays.
(§2) Human serum was purchased from Sigma (H 1388). The labeled peptide was incubated in either human serum or rat urine at 37EC for the specified amount of time. An aliquot was filtered through a 0.45 μm syringe filter prior to HPLC injection.

[3] = In vitro urine stability assay (HPLC) of In-111 labeled peptide; format: in vitro ADME; details: for % of compound present at 4 hours in urine / % of peptide at 4 hours after incubation at 37EC, Urine / HPLC Evaluation of Urine Stability at 37EC, Urine, t = 0: rat urine; for remaining at 4 h: rat, t = 4 h
Experimental: as §1, §2

[4] = human serum, 37EC, read-out: HPLC Evaluation of Serum Stability at 37EC, Serum, t = 4 h
[5] = 37EC, read-out: HPLC Evaluation of Urine Stability at 37EC, Urine, t = 4 h
[6] = Table 4, human serum, read-out: Serum Stability, Serum (t = 4 h)
[7] = Table 4, rat urine, read-out: Urine Stability, Urine (t = 4 h)

neurotensin receptors, sequence (P30989 whole entry): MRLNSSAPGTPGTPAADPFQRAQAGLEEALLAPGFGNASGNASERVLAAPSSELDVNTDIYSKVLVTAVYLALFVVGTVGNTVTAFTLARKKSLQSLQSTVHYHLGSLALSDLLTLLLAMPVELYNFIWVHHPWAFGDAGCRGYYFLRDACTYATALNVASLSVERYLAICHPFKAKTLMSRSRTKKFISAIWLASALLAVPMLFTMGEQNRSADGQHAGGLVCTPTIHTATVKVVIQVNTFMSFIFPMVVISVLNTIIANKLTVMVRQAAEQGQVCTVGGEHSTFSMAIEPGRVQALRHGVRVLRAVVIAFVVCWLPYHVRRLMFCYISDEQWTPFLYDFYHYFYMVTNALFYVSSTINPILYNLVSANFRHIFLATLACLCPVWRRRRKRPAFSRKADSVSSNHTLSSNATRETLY

CC[C@H](C)[C@H](NC(=O)[C@H](Cc1ccc(O)cc1)NC(=O)[C@@H]1CCCN1C(=O)[C@H](CCCNC(=N)N)NC(=O)C(NC(=O)[C@@H]1CCCN1C(=O)[C@@H](CCCCN)NC(=O)CN(CCN(CCN(CC(=O)O)CC(=O)O)CC(=O)O)CC(=O)O)C1CCN(C(=N)N)CC1)C(=O)N[C@@H](CC(C)C)C(=O)O (single isomer, unassigned) [Compound II, DTPA-DLys-Pro-Gly(PipAm)-Arg-Pro-Tyr-Ile-Leu-OH]
Kd ([1]; Table 1): 2.7 nM | % of compound present at 4 hours in serum ([2]; human serum, 37EC): 19.5% | % of peptide at 4 hours after incubation at 37EC, Serum ([2]; human serum, 37EC): 19.5% | % of compound present at 4 hours in urine ([3]; 37EC): 16.6% | % of peptide at 4 hours after incubation at 37EC, Urine ([3]; 37EC): 16.6%

CC[C@H](C)[C@H](NC(=O)[C@H](Cc1ccc(O)cc1)NC(=O)[C@@H]1CCCN1C(=O)[C@H](CCCNC(=N)N)NC(=O)C(CCc1ccnc(N)n1)NC(=O)[C@@H]1CCCN1C(=O)[C@@H](CCCCN)NC(=O)CN(CCN(CCN(CC(=O)O)CC(=O)O)CC(=O)O)CC(=O)O)C(=O)N[C@@H](CC(C)C)C(=O)O (single isomer, unassigned) [Compound III, DTPA-DLys-Pro-Aba(Apy)-Arg-Pro-Tyr-Ile-Leu-OH]
Kd ([1]; Table 1): 68 nM | % of compound present at 4 hours in serum ([2]; human serum, 37EC): 4.3% | % of peptide at 4 hours after incubation at 37EC, Serum ([2]; human serum, 37EC): 4.3% | % of compound present at 4 hours in urine ([3]; 37EC): 6.0% | % of peptide at 4 hours after incubation at 37EC, Urine ([3]; 37EC): 6.0%

CC(C)C[C@H](NC(=O)[C@@H](NC(=O)[C@H](Cc1ccc(O)cc1)NC(=O)[C@@H]1CCCN1C(=O)[C@H](CCCNC(=N)N)NC(=O)C(NC(=O)[C@@H]1CCCN1C(=O)[C@@H](CCCCN)NC(=O)CN(CCN(CCN(CC(=O)O)CC(=O)O)CC(=O)O)CC(=O)O)C1CCN(C(=N)N)CC1)C(C)(C)C)C(=O)O (single isomer, unassigned) [Compound X, DTPA-DLys-Pro-Gly(PipAm)-Arg-Pro-Tyr-tBuGly-Leu-OH]
IC50 ([1]; C-terminus modified derivatives): 3.5 nM | Kd ([1]; Table 3): 3.5 nM | % of peptide at 4 hours after incubation at 37EC, Serum ([2]; human serum, 37EC): 87.5% | % of peptide at 4 hours after incubation at 37EC, Urine ([3]; 37EC): 63.0%

CC[C@H](C)[C@H](NC(=O)[C@H](Cc1ccc(O)cc1)NC(=O)[C@@H]1CCCN1C(=O)C(Cc1ccc(NC(=N)N)cc1)NC(=O)[C@H](CCCNC(=N)N)NC(=O)[C@@H]1CCCN1C(=O)[C@@H](CCCCN)NC(=O)CN(CCN(CCN(CC(=O)O)CC(=O)O)CC(=O)O)CC(=O)O)C(=O)N[C@@H](CC(C)C)C(=O)O (single isomer, unassigned) [DTPA-DLys-Pro-Arg-(4-Gu)Phe-Pro-Tyr-Ile-Leu-OH]
Kd ([1]; Table 3): 83 nM | % of peptide at 4 hours after incubation at 37EC, Serum ([2]; human serum, 37EC): 16.3% | % of peptide at 4 hours after incubation at 37EC, Urine ([3]; 37EC): 0%

CC[C@H](C)[C@H](NC(=O)[C@H](Cc1ccc(O)cc1)NC(=O)[C@@H]1CCCN1C(=O)C(CCc1ccnc(N)n1)NC(=O)[C@H](CCCNC(=N)N)NC(=O)[C@@H]1CCCN1C(=O)[C@@H](CCCCN)NC(=O)CN(CCN(CCN(CC(=O)O)CC(=O)O)CC(=O)O)CC(=O)O)C(=O)N[C@@H](CC(C)C)C(=O)O (single isomer, unassigned) [DTPA-DLys-Pro-Arg-Aba(Apy)-Pro-Tyr-Ile-Leu-OH]
Kd ([1]; Table 3): 1200 nM | % of peptide at 4 hours after incubation at 37EC, Serum ([2]; human serum, 37EC): 15.7% | % of peptide at 4 hours after incubation at 37EC, Urine ([3]; 37EC): 4.7%

CC[C@H](C)[C@H](NC(=O)[C@H](Cc1ccc(O)cc1)NC(=O)[C@@H]1CCCN1C(=O)[C@H](CCCNC(=N)N)NC(=O)C(Cc1ccc(NC(=N)N)cc1)NC(=O)[C@@H]1CCCN1C(=O)[C@@H](CCCCN)NC(=O)CN(CCN(CCN(CC(=O)O)CC(=O)O)CC(=O)O)CC(=O)O)C(=O)N[C@@H](CC(C)C)C(=O)O (stereo partly drawn) [Compound I, DTPA-DLys-Pro-(4-Gu)Phe-Arg-Pro-Tyr-Ile-Leu-OH]
Kd ([1]; Table 1): 8.6 nM | % of compound present at 4 hours in serum ([2]; human serum, 37EC): 14.1% | % of peptide at 4 hours after incubation at 37EC, Serum ([2]; human serum, 37EC): 14.1% | % of compound present at 4 hours in urine ([3]; 37EC): 1.5% | % of peptide at 4 hours after incubation at 37EC, Urine ([3]; 37EC): 1.5%

CC[C@H](C)[C@@H](COC(=O)N[C@@H](CC(C)C)C(=O)O)NC(=O)[C@H](Cc1ccc(O)cc1)NC(=O)[C@@H]1CCCN1C(=O)[C@H](CCCNC(=N)N)NC(=O)[C@@H](NC(=O)[C@@H]1CCCN1C(=O)[C@@H](CCCCN)NC(=O)CN(CCN(CCN(CC(=O)O)CC(=O)O)CC(=O)O)CC(=O)O)C1CCN(C(=N)N)CC1 [DTPA-DLys-Pro-Gly(PipAm)-Arg-Pro-Tyr-Ile^R-OCO-Leu-OH] ({DTPA}-[dK]P[Gly(1-amidinopiperidin-4-yl)]RPY[X3]L-OH)
% of peptide at 4 hours after incubation at 37EC, Serum ([2]; human serum, 37EC): 94.6% | % of peptide at 4 hours after incubation at 37EC, Urine ([3]; 37EC): 89.8%

CC(C)C[C@H](NC(=O)[C@@H](NC(=O)[C@H](Cc1ccc(O)cc1)NC(=O)[C@@H]1CCCN1C(=O)[C@H](CCCNC(=N)N)NC(=O)C(NC(=O)[C@@H]1CCCN1C(=O)[C@@H](CCCCN)NC(=O)CN(CCN(CCN(CC(=O)O)CC(=O)O)CC(=O)O)CC(=O)O)C1CCN(C(=N)N)CC1)C(C)(C)C)C(=O)NO (stereo partly drawn) [DTPA-DLys-Pro-Gly(PipAm)-Arg-Pro-Tyr-tBuGly-Leu-HA] ({DTPA}-[dK]P[ξGly(4-Pip(1-amidino))]RPY[Tle]L-{NHOH})
% of peptide at 4 hours after incubation at 37EC, Serum ([2]; human serum, 37EC): 89.2% | % of peptide at 4 hours after incubation at 37EC, Urine ([3]; 37EC): 60.2%

CC(C)C[C@H](NC(=O)[C@@H](NC(=O)[C@H](Cc1ccc(O)cc1)NC(=O)[C@@H]1CCCN1C(=O)[C@H](CCCNC(=N)N)NC(=O)[C@H](CCC1CCN(C(=N)N)CC1)NC(=O)[C@@H]1CCCN1C(=O)[C@@H](CCCCN)NC(=O)CN(CCN(CCN(CC(=O)O)CC(=O)O)CC(=O)O)CC(=O)O)C(C)(C)C)C(=O)O [DTPA-DLys-Pro-homoAla(PipAm)-Arg-Pro-Tyr-tBuGly-Leu-OH] ({DTPA}-[dK]P[Abu(1-amidino-4-piperidyl)]RPY[Tle]L-OH)
% of peptide at 4 hours after incubation at 37EC, Serum ([2]; human serum, 37EC): 84.3% | % of peptide at 4 hours after incubation at 37EC, Urine ([3]; 37EC): 71.3%

CC[C@H](C)[C@H](NC(=O)[C@H](Cc1ccc(O)cc1)NC(=O)[C@@H]1CCCN1C(=O)[C@H](Cc1ccc(NC(=N)N)cc1)NC(=O)[C@H](Cc1ccc(NC(=N)N)cc1)NC(=O)[C@@H]1CCCN1C(=O)[C@@H](CCCCN)NC(=O)CN(CCN(CCN(CC(=O)O)CC(=O)O)CC(=O)O)CC(=O)O)C(=O)N[C@@H](CC(C)C)C(=O)O [In-111-DTPA-DK-P-F(Gu)-F(Gu)-P-Y-I-L, metal not drawn] ({DTPA}-[dK]P[Phe(4-guanidino)][Phe(4-guanidino)]PYIL-OH; C-terminus assumed)
remaining at 4 h [2, 4]: 25.2% | HPLC Evaluation of Serum Stability at 37EC, Serum, t = 0 ([2]; human serum): 99.0% | HPLC Evaluation of Urine Stability at 37EC, Urine, t = 0 [3]: 92.3% | remaining at 4 h [3, 5]: 2.3%

CC[C@H](C)[C@H](NC(=O)[C@H](Cc1ccc(O)cc1)NC(=O)[C@@H]1CCCN1C(=O)[C@H](CCCN=C(N)N)NC(=O)[C@H](Cc1ccc(NC(=N)N)cc1)NC(=O)[C@@H]1CCCN1C(=O)[C@@H](CCCCN)NC(=O)CN(CCN(CCN(CC(=O)O)CC(=O)O)CC(=O)O)CC(=O)O)C(=O)N[C@@H](CC(C)C)C(=O)O [In-111-DTPA-DK-P-F(Gu)-R-P-Y-I-L, metal not drawn]
remaining at 4 h [2, 4]: 14.1% | HPLC Evaluation of Serum Stability at 37EC, Serum, t = 0 ([2]; human serum): 98.7% | HPLC Evaluation of Urine Stability at 37EC, Urine, t = 0 [3]: 94.1% | remaining at 4 h [3, 5]: 1.5%

CC(C)C[C@@H](CN[C@@H](CC(C)C)C(N)=O)NC(=O)[C@H](Cc1ccc(O)cc1)NC(=O)[C@@H]1CCCN1C(=O)[C@H](CCCNC(=N)N)NC(=O)[C@H](Cc1ccc(NC(=N)N)cc1)NC(=O)[C@@H]1CCCN1C(=O)[C@@H](CCCCN)NC(=O)CN(CCN(CCN(CC(=O)O)CC(=O)O)CC(=O)O)CC(=O)O [In-111-DTPA-DK-P-F(Gu)-R-P-Y-L(Ψ-CH2NH)-L-NH2, metal not drawn] ({DTPA}-[dK]P[Phe(4-guanidino)]RPY-X1)
remaining at 4 h [2, 6]: 76.2% | remaining at 4 h [3, 7]: 95.7%

CC(C)C[C@H](NC(=O)[C@@H](NC(=O)[C@H](Cc1ccc(O)cc1)NC(=O)[C@@H]1CCCN1C(=O)[C@H](CCCN=C(N)N)NC(=O)[C@H](Cc1ccc(NC(=N)N)cc1)NC(=O)[C@@H]1CCCN1C(=O)[C@@H](CCCCN)NC(=O)CN(CCN(CCN(CC(=O)O)CC(=O)O)CC(=O)O)CC(=O)O)C(C)(C)C)C(=O)O [In-111-DTPA-DK-P-F(Gu)-R-P-Y-tBuG-L, metal not drawn] ({DTPA}-[dK]P[Phe(4-guanidino)]RPY[Tle]L-OH)
remaining at 4 h [2, 6]: 72% | remaining at 4 h [3, 7]: 51.1%

CC[C@H](C)[C@H](NC(=O)[C@H](Cc1ccc(O)cc1)NC(=O)[C@@H]1CCCN1C(=O)[C@H](CCCNC(=N)N)NC(=O)[C@H](CCCNC(=N)N)NC(=O)CN(CCN(CCN(CC(=O)O)CC(=O)O)CC(=O)O)CC(=O)O)C(=O)N[C@@H](CC(C)C)C(=O)O [In-111-DTPA-R-R-P-Y-I-L, metal not drawn, reference compound]
remaining at 4 h [2, 4]: 1.6% | HPLC Evaluation of Serum Stability at 37EC, Serum, t = 0 ([2]; human serum): 92% | HPLC Evaluation of Urine Stability at 37EC, Urine, t = 0 [3]: 96.7% | remaining at 4 h [3, 5]: 13% | remaining at 4 h [3, 7]: 14%

DTPA-DLys-Pro-Aba(Apy)-Aba(Apy)-Pro-Tyr-Ile-Leu-OH ({DTPA-dK-Pro-Aba(Apy)-Aba(Apy)}-PYIL-OH; reading uncertain)
Kd ([1]; Table 3): > 10000 nM
